The values below come from publication PMC11864979, “First-in-class ultralong-target-residence-time p38α inhibitors as a mitosis-targeted therapy for colorectal cancer” (Nature Cancer, 2025).

Each structure is given as a SMILES string. Where two headings read alike, the source gives them in different places.

Holding throughout (assay): selectivity profiling in a panel of 340 wild-type kinases (Reaction Biology Europe)
Common to all, as to type: binding

Test [1] concerns the target T1, 340 wild-type kinases (Homo sapiens, UniProt O00311).
T1 construct: purchased Reaction Biology Europe

In test [2] the target is T2, 340 wild-type kinases (Homo sapiens, UniProt P25098).
T2 construct: purchased Reaction Biology Europe
T2 sequence (P25098 1-689): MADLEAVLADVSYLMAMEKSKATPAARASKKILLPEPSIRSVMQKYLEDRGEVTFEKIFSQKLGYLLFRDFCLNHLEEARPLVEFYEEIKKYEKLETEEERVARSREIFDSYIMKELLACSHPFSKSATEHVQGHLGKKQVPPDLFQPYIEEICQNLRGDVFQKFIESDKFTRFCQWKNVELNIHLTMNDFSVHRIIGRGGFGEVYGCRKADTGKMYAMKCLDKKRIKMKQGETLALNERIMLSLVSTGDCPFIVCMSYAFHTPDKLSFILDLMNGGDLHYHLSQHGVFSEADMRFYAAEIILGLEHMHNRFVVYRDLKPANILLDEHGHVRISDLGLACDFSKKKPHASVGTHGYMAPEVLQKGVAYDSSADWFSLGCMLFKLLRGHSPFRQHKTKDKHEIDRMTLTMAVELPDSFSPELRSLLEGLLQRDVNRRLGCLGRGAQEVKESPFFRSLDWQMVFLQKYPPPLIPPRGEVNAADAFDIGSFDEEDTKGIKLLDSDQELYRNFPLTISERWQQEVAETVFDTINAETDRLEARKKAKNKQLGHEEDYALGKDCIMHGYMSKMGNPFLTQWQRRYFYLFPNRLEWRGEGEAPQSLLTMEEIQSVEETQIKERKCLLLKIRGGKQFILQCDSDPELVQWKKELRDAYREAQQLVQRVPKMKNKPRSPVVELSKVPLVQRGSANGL

The target in test [3] is T3, 340 wild-type kinases (Homo sapiens, UniProt P37023).
T3 construct: purchased Reaction Biology Europe
T3 sequence (P37023 22-503): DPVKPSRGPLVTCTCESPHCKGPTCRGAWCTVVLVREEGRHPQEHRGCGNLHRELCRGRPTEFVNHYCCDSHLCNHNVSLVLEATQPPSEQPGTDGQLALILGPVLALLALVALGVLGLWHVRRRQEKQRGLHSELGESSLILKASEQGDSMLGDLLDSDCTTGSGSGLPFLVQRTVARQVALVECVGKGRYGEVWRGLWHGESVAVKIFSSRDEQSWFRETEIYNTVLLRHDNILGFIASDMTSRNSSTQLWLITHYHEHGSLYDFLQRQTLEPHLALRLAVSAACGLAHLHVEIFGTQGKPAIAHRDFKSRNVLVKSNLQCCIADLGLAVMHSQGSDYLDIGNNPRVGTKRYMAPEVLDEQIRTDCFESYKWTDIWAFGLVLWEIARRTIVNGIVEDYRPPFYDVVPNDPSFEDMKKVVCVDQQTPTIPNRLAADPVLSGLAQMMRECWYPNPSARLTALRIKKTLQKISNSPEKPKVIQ

Test [4] concerns the target T4, 340 wild-type kinases (Homo sapiens, UniProt Q15131).
T4 construct: purchased Reaction Biology Europe

For test [5], the target named is T5, 340 wild-type kinases (Homo sapiens, UniProt Q6XUX3).
T5 construct: purchased Reaction Biology Europe
T5 sequence (Q6XUX3 1-929): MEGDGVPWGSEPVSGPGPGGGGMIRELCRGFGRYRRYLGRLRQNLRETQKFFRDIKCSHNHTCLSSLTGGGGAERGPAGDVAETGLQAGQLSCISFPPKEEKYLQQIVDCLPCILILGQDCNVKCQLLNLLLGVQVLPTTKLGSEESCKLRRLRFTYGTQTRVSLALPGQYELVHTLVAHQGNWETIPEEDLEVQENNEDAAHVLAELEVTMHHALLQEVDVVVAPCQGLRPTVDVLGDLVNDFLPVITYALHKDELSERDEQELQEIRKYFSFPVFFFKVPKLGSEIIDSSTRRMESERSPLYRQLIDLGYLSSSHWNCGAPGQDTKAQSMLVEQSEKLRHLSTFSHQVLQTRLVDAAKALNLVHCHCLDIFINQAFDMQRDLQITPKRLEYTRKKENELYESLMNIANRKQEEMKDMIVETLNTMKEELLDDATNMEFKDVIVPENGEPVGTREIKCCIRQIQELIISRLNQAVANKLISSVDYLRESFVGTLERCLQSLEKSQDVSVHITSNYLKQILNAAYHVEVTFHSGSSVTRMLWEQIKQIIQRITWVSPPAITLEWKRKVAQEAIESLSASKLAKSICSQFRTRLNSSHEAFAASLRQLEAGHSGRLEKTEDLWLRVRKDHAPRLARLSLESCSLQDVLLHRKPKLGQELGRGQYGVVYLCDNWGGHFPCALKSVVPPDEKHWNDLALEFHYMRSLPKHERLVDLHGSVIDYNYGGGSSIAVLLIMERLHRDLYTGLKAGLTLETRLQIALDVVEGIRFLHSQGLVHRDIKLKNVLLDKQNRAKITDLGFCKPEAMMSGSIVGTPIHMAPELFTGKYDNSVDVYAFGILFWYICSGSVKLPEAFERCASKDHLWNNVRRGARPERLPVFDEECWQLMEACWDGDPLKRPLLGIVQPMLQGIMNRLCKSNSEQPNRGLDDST

The target in test [6] is T6, 340 wild-type kinases (Homo sapiens, UniProt Q99986).
T6 construct: purchased Reaction Biology Europe
T6 sequence (Q99986 1-396): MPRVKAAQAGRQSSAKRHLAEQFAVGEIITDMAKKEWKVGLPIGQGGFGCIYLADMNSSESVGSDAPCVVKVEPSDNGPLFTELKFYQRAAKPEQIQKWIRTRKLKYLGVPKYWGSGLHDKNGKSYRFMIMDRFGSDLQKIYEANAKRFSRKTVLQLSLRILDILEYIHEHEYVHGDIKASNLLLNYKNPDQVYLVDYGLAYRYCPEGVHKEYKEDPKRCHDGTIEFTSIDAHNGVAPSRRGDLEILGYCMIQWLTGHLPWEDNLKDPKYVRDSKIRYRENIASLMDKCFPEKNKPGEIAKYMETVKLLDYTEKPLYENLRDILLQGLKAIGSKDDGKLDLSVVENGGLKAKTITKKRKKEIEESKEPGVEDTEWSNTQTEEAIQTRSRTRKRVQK

T4 sequence (Q15131 whole entry): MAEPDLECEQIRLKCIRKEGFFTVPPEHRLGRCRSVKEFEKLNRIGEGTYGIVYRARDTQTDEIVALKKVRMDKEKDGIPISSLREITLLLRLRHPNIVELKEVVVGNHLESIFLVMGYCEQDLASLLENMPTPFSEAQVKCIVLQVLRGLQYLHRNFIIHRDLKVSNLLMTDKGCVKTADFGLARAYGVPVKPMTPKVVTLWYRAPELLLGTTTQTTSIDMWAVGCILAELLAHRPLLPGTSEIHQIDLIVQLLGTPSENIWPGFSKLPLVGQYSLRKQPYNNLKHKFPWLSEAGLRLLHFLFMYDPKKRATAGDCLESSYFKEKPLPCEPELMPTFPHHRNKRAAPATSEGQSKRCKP
T1 sequence (O00311 whole entry): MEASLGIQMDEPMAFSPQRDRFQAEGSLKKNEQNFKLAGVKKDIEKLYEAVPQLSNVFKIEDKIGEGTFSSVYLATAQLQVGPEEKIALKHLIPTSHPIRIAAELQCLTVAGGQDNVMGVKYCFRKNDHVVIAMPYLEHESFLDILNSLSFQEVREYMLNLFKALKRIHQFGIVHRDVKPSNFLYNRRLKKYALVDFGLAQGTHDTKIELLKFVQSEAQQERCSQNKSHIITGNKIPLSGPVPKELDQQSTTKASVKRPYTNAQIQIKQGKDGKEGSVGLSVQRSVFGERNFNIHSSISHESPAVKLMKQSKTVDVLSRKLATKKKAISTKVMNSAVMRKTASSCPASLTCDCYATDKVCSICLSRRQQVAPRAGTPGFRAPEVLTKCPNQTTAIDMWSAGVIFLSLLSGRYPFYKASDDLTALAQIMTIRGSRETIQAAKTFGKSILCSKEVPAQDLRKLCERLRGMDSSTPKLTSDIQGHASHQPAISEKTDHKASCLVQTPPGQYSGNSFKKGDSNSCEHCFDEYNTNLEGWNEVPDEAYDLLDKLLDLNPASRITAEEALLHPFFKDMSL

As for `CNC(=O)c1ccc2c(c1)C(=O)c1ccc(Nc3ccc(F)c(NC(=O)C4CC4)c3)cc1CC2` [Compound 2015], the remaining activity at 0.2 µM on 340 wild-type kinases [1] (0.2 µM 2015, read-out: CDC7/DBF4 residual activity) amounted to 108%; at 340 wild-type kinases [1] (CDC7/DBF4, 0.2 µM, read-out: residual activity), 108%; at 340 wild-type kinases [2] (0.2 µM 2015, read-out: GRK2 residual activity) it was 89.1%; at 340 wild-type kinases [2] (GRK2, 0.2 µM, read-out: residual activity), 89.2%; on 340 wild-type kinases [3] (0.2 µM 2015, read-out: ACVRL1 residual activity) it was 100%; on 340 wild-type kinases [3] (ACVRL1, 0.2 µM, read-out: residual activity), 100%. Besides, the remaining activity at 0.2 µM on 340 wild-type kinases [4] (0.2 µM 2015, read-out: CDK10/CycQ residual activity) was determined as 108%; on 340 wild-type kinases [4] (CDK10/CycQ, 0.2 µM, read-out: residual activity) it was 108%; at 340 wild-type kinases [5] (0.2 µM 2015, read-out: RIPK5 residual activity) it was 92.4%; at 340 wild-type kinases [5] (RIPK5, 0.2 µM, read-out: residual activity), 92.4%; at 340 wild-type kinases [6] (0.2 µM 2015, read-out: VRK1 residual activity), 96.8%; on 340 wild-type kinases [6] (VRK1, 0.2 µM, read-out: residual activity) it was 96.8%. Besides, the remaining activity at 1 µM at 340 wild-type kinases [1] (1 µM 2015, read-out: CDC7/DBF4 residual activity) was found to be 95.1%; at 340 wild-type kinases [1] (CDC7/DBF4, 1 µM, read-out: residual activity) it was 95.1%; at 340 wild-type kinases [2] (GRK2, 1 µM, read-out: residual activity), 80.8%; on 340 wild-type kinases [3] (1 µM 2015, read-out: ACVRL1 residual activity), 102%; at 340 wild-type kinases [3] (ACVRL1, 1 µM, read-out: residual activity) it was 102%; at 340 wild-type kinases [4] (1 µM 2015, read-out: CDK10/CycQ residual activity), 97.1%. Also, the remaining activity at 1 µM on 340 wild-type kinases [4] (CDK10/CycQ, 1 µM, read-out: residual activity) is 97.1%; on 340 wild-type kinases [5] (1 µM 2015, read-out: RIPK5 residual activity) it was 88.1%; on 340 wild-type kinases [5] (RIPK5, 1 µM, read-out: residual activity) it was 88.1%; on 340 wild-type kinases [6] (1 µM 2015, read-out: VRK1 residual activity), 87.2%; on 340 wild-type kinases [6] (VRK1, 1 µM, read-out: residual activity), 87.2%.
